Source: US20200077648A1, “PHENOXYPHENYLAMIDINES AND THE USE THEREOF AS FUNGICIDES” (priority 2016, published 2020)

Assay: Log P measurement by HPLC on reversed phase columns (EEC directive 79/831 Annex V.A8; methods [a], [b], [c])
Assay type: physicochemical
Conditions: method [a]: LC-UV, acidic range, 0.1% formic acid in water and acetonitrile as eluent
Description: If more than one Log P value is available within the same method, all the values are given and separated by “+”. […] Lambda-max-values were determined using UV-spectra from 200 nm to 400 nm and the peak values of the chromatographic signals.

Row | SMILES | LogP
1 | CCN(C)C=Nc1cc(C)c(Oc2ccccc2Br)cc1C(F)(F)F [Example 25] | 2.17^[a]
2 | CCN(C)C=Nc1cc(C(F)(F)F)c(Oc2ccccc2C)cc1C [Example 33] | 1.96^[a]
3 | CCN(C)C=Nc1cc(C)c(Oc2ccccc2Cl)cc1C(F)F [Example 39] | 1.88^[a]
4 | CCN(C)C=Nc1cc(C(F)F)c(Oc2ccccc2F)cc1C [Example 54] | 1.49^[a]
5 | CCN(C)C=Nc1cc(Br)c(Oc2ccccc2C)cc1C [Example 43] | 1.72^[a]
6 | CCN(C)C=Nc1cc(C)c(Oc2ccccc2I)cc1C(F)F [Example 41] | 1.90^[a]
7 | CCN(C)C=Nc1cc(C)c(Oc2ccccc2C2CC2)cc1C [Example 11] | 2.09^[a]
8 | CCN(C)C=Nc1cc(C)c(Oc2ccccc2C)cc1C(F)F [Example 6] | 1.72^[a]
9 | Cc1cc(N=CN(C)C(C)C)c(Cl)cc1Oc1ccccc1F [Example 62] | 1.61^[a]
10 | CCN(C)C=Nc1cc(Br)c(Oc2ccccc2Br)cc1C [Example 46] | 1.84^[a]
11 | CCN(C)C=Nc1cc(Br)c(Oc2ccccc2Cl)cc1C [Example 45] | 1.79^[a]
12 | CCN(C)C=Nc1cc(C)c(Oc2ccccc2F)cc1OC [Example 14] | 1.46^[a];
13 | CCN(C)C=Nc1cc(C)c(Oc2ccccc2)cc1C#N [Example 13] | 1.58^[a];
14 | CCN(C)C=Nc1cc(C)c(Oc2ccccc2Br)cc1C(F)F [Example 40] | 1.94^[a]
15 | CCN(C)C=Nc1cc(C)c(Oc2ccccc2)cc1C(F)(F)F [Example 22] | 1.89^[a]
16 | Cc1cc(N=CN(C)C(C)C)c(Br)cc1Oc1ccccc1F [Example 63] | 1.63^[a]
17 | CCN(C)C=Nc1cc(C)c(Oc2cccc(Cl)c2)cc1C [Example 1] | 1.86^[a]
18 | CCN(C)C=Nc1cc(C)c(Oc2cccc(Cl)c2)cc1Cl [Example 49] | 1.84^[a]
19 | CCN(C)C=Nc1cc(I)c(Oc2ccccc2Br)cc1C [Example 57] | 1.75^[a]
20 | Cc1cc(N=CN(C)C)c(Cl)cc1Oc1ccccc1F [Example 60] | 1.37^[a]
21 | CCc1ccccc1Oc1cc(C)c(N=CN(C)CC)cc1C [Example 10] | 2.06^[a]
22 | CCc1cc(Oc2ccccc2)c(Br)cc1N=CN(C)C [Example 35] | 1.37^[a];

Row | SMILES | LogP
23 | CCN(C)C=Nc1cc(C)c(Oc2ccccc2Br)cc1Cl [Example 29] | 1.80^[a];
24 | CCN(C)C=Nc1cc(I)c(Oc2ccccc2Cl)cc1C [Example 58] | 1.72^[a]
25 | CCN(C)C=Nc1cc(C)c(Oc2ccccc2C#N)cc1Cl [Example 17] | 1.21^[a]
26 | CCN(C)C=Nc1cc(C)c(Oc2ccccc2Cl)cc1C(F)(F)F [Example 23] | 2.08^[a]
27 | CCN(C)C=Nc1cc(C2CC2)c(Oc2ccccc2F)cc1C [Example 52] | 1.75^[a]
28 | CCN(C)C=Nc1cc(C)c(Oc2ccccc2C#N)cc1C(F)F [Example 38] | 1.55^[a]
29 | Cc1cc(Oc2ccc(F)cc2)c(C)cc1N=CN(C)C(C)C [Example 4] | 1.66^[a];
30 | CCN(C)C=Nc1cc(I)c(Oc2ccccc2C)cc1C [Example 59] | 1.78^[a]
31 | CCN(C)C=Nc1cc(C)c(Oc2ccccc2C#N)cc1C(F)(F)F [Example 27] | 1.63^[a]
32 | CCN(C)C=Nc1cc(Cl)c(Oc2ccccc2C#N)cc1C [Example 18] | 1.21^[a]
33 | CCN(C)C=Nc1cc(C)c(Oc2ccccc2I)cc1C(F)(F)F [Example 26] | 2.28^[a]
34 | Cc1cc(Oc2ccccc2F)c(C)cc1N=CN(C)C [Example 66] | 1.43^[a]
35 | Cc1cc(N=CN(C)C)c(Br)cc1Oc1ccccc1F [Example 61] | 1.39^[a]
36 | CCN(C)C=Nc1cc(C)c(Oc2ccccc2C)cc1C(F)(F)F [Example 28] | 1.96^[a]
37 | CCN(C)C=Nc1cc(C)c(Oc2ccccc2F)cc1C(F)(F)F [Example 24] | 1.89^[a]
38 | CCN(C)C=Nc1cc(Br)c(Oc2ccccc2I)cc1C [Example 47] | 1.92^[a]
39 | CCN(C)C=Nc1cc(Cl)c(Oc2cccc(Cl)c2F)cc1C [Example 50] | 1.83^[a]
40 | CCN(C)C=Nc1cc(C)c(Oc2ccccc2C)cc1OC [Example 15] | 1.60^[a];
41 | Cc1cc(Oc2ccccc2)c(I)cc1N=CN(C)C [Example 32] | 1.61^[a];
42 | CCN(C)C=Nc1cc(C)c(Oc2cccc(Cl)c2F)cc1Cl [Example 3] | 1.88^[a]
43 | Cc1cc(N=CN(C)C)c(Cl)cc1Oc1ccccc1Br [Example 37] | 1.55^[a];
44 | CCN(C)C=Nc1cc(C)c(Oc2ccccc2)cc1C1CC1 [Example 51] | 1.75^[a]

Same assay, conditions: method [a]: LC-UV, acidic range, 0.1% formic acid in water and acetonitrile as eluent (linear gradient 10% to 95% acetonitrile)

Row | LogP | SMILES
45 | 0.97^[a] | CCN(C)C=Nc1cc(C)c(Oc2ccccc2C(=O)N(C)C)cc1Cl [Example 91]
46 | 1.63^[a] | CCN(C)C=Nc1cc(C)c(Oc2ccccc2Br)cc1C [Example 83]
47 | 0.91^[a] | CCN(C)C=Nc1cc(C)c(Oc2ccccc2S(C)(=O)=O)cc1C [Example 122]
48 | 1.41^[a] | Cc1cc(Oc2ccccc2C#N)c(I)cc1N=CN(C)C(C)C [Example 426]
49 | 1.83^[a] | CCN(C)C=Nc1cc(C)c(Oc2ccccc2F)cc1C1CC1 [Example 110]
50 | 1.35^[a] | CCN(C)C=Nc1cc(C)c(Oc2ccccc2C(=O)OC)cc1Cl [Example 77]
51 | 1.55^[a] | CCN(C)C=Nc1cc(C)c(Oc2ccccc2C(F)F)cc1Cl [Example 78]
52 | 1.25^[a] | Cc1cc(Oc2ccccc2C#N)c(C)cc1N=CN(C)C [Example 70]
53 | 1.63^[a] | C=C(C)c1cc(Oc2ccccc2)c(C)cc1N=CN(C)CC [Example 96]
54 | 1.66^[a] | Cc1cc(Oc2ccccc2Br)c(C)cc1N=CN(C)C [Example 68]
55 | 1.21^[a] | CCN(C)C=Nc1cc(C)c(Oc2ccccc2)cc1C(=O)N(C)C [Example 87]
56 | 0.55^[a] | CCN(C)C=Nc1cc(C)c(Oc2ccccc2N(C)C)cc1C [Example 85]
57 | 0.94^[a] | CCN(C)C=Nc1cc(C)c(Oc2ccccc2[S+](C)[O-])cc1C (centres unmarked) [Example 116]
58 | 1.38^[a] | CCN(C)C=Nc1cc(C2CC2)c(Oc2ccccc2C#N)cc1C [Example 119]
59 | 1.59^[a] | CCc1cc(N=CN(C)CC)c(C)cc1Oc1ccccc1C#N [Example 108]
60 | 1.44^[a] | C#Cc1cc(Oc2ccccc2)c(C)cc1N=CN(C)CC [Example 111]
61 | 0.91^[a] | CCN(C)C=Nc1cc(C)c(Oc2ccccc2S(C)(=O)=O)cc1Cl [Example 75]
62 | 1.82^[a] | CCN(C)C=Nc1cc(C)c(Oc2ccccc2SC)cc1Br [Example 103]
63 | 1.78^[a] | CCN(C)C=Nc1cc(C)c(Oc2ccccc2C2CC2)cc1Cl [Example 74]
64 | 1.75^[a] | CCN(C)C=Nc1cc(C(C)C)c(Oc2ccccc2F)cc1C [Example 121]
65 | 0.78^[a] | CCN(C)C=Nc1cc(C)c(Oc2ccccc2N(C)C)cc1Cl [Example 76]
66 | 1.66^[a] | C=C(C)c1cc(Oc2ccccc2F)c(C)cc1N=CN(C)CC [Example 97]

Row | LogP | SMILES
67 | 1.69^[a] | C=Cc1ccccc1Oc1cc(Cl)c(N=CN(C)CC)cc1C [Example 89]
68 | 1.58^[a] | CCN(C)C=Nc1cc(C)c(Oc2cccc(F)c2C#N)cc1Br [Example 104]
69 | 1.07^[a] | CCN(C)C=Nc1cc(C)c(Oc2ccccc2N(C)C)cc1Br [Example 100]
70 | 1.58^[a] | CCN(C)C=Nc1cc(C)c(Oc2ccccc2)cc1N(C)C [Example 82]
71 | 1.84^[a] | CCN(C)C=Nc1cc(C)c(Oc2ccccc2C2CC2)cc1Br [Example 94]
72 | 1.32^[a] | CCN(C)C=Nc1cc(C)c(Oc2cccc(F)c2C#N)cc1C [Example 80]
73 | 1.44^[a] | C#Cc1cc(Oc2ccccc2F)c(C)cc1N=CN(C)CC [Example 112]
74 | 1.81^[a] | CCN(C)C=Nc1cc(C)c(Oc2ccccc2C(F)(F)F)cc1Cl [Example 90]
75 | 1.58^[a] | CCN(C)C=Nc1cc(C)c(Oc2ccccc2F)cc1N(C)C [Example 81]
76 | 1.75^[a] | CCN(C)C=Nc1cc(C)c(Oc2cccc(F)c2C)cc1Br [Example 95]
77 | 2.03^[a] | CCN(C)C=Nc1cc(C)c(Oc2ccccc2I)cc1Br [Example 99]
78 | 1.66^[a] | CCN(C)C=Nc1cc(C)c(Oc2cccc(F)c2Br)cc1Cl [Example 79]
79 | 1.02^[a] | CCN(C)C=Nc1cc(C)c(Oc2ccccc2[S+](C)[O-])cc1Br (centres unmarked) [Example 101]
80 | 1.60^[a] | C=C(C)c1cc(N=CN(C)CC)c(C)cc1Oc1ccccc1C#N [Example 109]
81 | 2.26^[a] | CCN(C)C=Nc1cc(C)c(Oc2ccccc2C(C)C)cc1Br [Example 98]
82 | 0.94^[a] | CCN(C)C=Nc1cc(C)c(Oc2ccccc2S(C)(=O)=O)cc1Br [Example 123]
83 | 1.27^[a] | CCN(C)C=Nc1cc(C)c(Oc2ccccc2C#N)cc1Br [Example 92]
84 | 1.97^[a] | Cc1cc(Oc2ccccc2Br)c(C)cc1N=CN(C)C(C)C [Example 69]
85 | 1.24^[a] | CCN(C)C=Nc1cc(C)c(Oc2ccccc2F)cc1C(=O)N(C)C [Example 117]
86 | 1.55^[a] | CCN(C)C=Nc1cc(C)c(Oc2ccccc2SC)cc1C [Example 115]
87 | 1.72^[a] | CCN(C)C=Nc1cc(C)c(Oc2cccc(F)c2C)cc1C [Example 86]
88 | 1.29^[a] | CCN(C)C=Nc1cc(C)c(Oc2cc(F)ccc2C#N)cc1C [Example 84]

Second part, the molecule before the results:

Row | SMILES | LogP
89 | CCN(C)C=Nc1cc(C)c(Oc2ccccc2)cc1C#N [Example 72] | 1.53^[a]
90 | CCN(C)C=Nc1cc(C)c(Oc2ccccc2)cc1C1CC1 [Example 113] | 1.58^[a]

Same assay, conditions: method [b]: LC-UV, neutral range, 0.001 molar ammonium acetate solution in water and acetonitrile as eluent

Row | SMILES | LogP
91 | CCN(C)C=Nc1cc(C)c(Oc2ccccc2F)cc1OC [Example 14] | 4.33^[b]
92 | CCN(C)C=Nc1cc(C)c(Oc2ccccc2)cc1C#N [Example 13] | 3.78^[b]
93 | CCc1cc(Oc2ccccc2)c(Br)cc1N=CN(C)C [Example 35] | 4.29^[b]
94 | CCN(C)C=Nc1cc(C)c(Oc2ccccc2Br)cc1Cl [Example 29] | 4.93^[b]
95 | Cc1cc(Oc2ccc(F)cc2)c(C)cc1N=CN(C)C(C)C [Example 4] | 5.63^[b]
96 | CCN(C)C=Nc1cc(C)c(Oc2ccccc2C)cc1OC [Example 15] | 5.53^[b]
97 | Cc1cc(Oc2ccccc2)c(I)cc1N=CN(C)C [Example 32] | 4.51^[b]
98 | Cc1cc(N=CN(C)C)c(Cl)cc1Oc1ccccc1Br [Example 37] | 4.47^[b]
